Like-named read-outs stand apart in the source and are kept apart here.
What was measured:
midbrain TH = experiment: Midbrain TH expression in MPTP Parkinson's disease model mouse (western-blotting); type: in vivo; details: midbrain total protein, GAPDH internal reference, gavage 21 days after MPTP modeling
Protocol: (§1) Neurotoxins can be used to establish PD animal models. Currently, 1-methyl-4-phenyl-1,2,3,6-tetrahydropyridine (MPTP) is the sole synthetic toxin which is recognized to induce PD symptoms in human and non-human primates and in mice. Using MPTP subacute modeling method, C57BL/6J male mice were intraperitoneally injected with MPTP 30 mg/kg, once a day for 5 consecutive days. The experiment animals were divided into blank control group, MPTP model group, and compound treatment group. For the […] compound treatment group, the compound was administrated by gavage for 21 consecutive days after the completion of modeling; for the MPTP model group, the normal saline was administrated by gavage for 21 consecutive days after the completion of modeling; and for the blank control group, the normal saline was first intraperitoneally injected for 5 days, and then administrated by gavage for 21 days.
The main cause of PD lies in the pathological changes in the substantia nigra-striatum projection system of the brain and the progressive degeneration and loss of dopaminergic neurons. Tyrosine hydroxylase (TH) is the first enzyme in the biosynthesis of catecholamine neurotransmitters, as well as the first rate-limiting enzyme in the dopamine synthesis. It plays an important role in the synthesis and metabolism of the neurotransmitter DA. The TH in PD animal models and patients has a wide range of abnormal changes, from the gene expression to the enzyme protein content and enzyme activity. The detection of the TH expression in the midbrain and substantia nigra of PD model mice can be used to evaluate the neuroprotective activity of the compound.
Half of experiment mice in each group were taken to extract the total midbrain protein, and the change in the midbrain TH was determined by western-blotting using GAPDH as the internal reference. The experiment included blank control group, MPTP model group, positive control group (caffeic acid phenethyl ester, CAPE), prototype control group (styryl sulfone compounds 3B, 3C, 3D, and 3G, whose structures are shown as above), and target compound group.

substantia nigra CD11b = experiment: Number of substantia nigra microglial cells with CD11b positive expression in MPTP Parkinson's disease model mouse (immunohistochemistry); type: in vivo; details: for Positive cell number (microglial cells with CD11b positive expression): substantia nigra, MPTP Parkinson's disease model mouse, immunohistochemistry
Protocol: as §1
Neuron-glial cell network homeostasis disorder is an important factor for the selective and progressive death of substantia nigra dopaminergic neurons in PD. In the neurotoxic effect of MPTP, the excessive activations of microglial cells and astrocytes produce a variety of inflammatory cytokines and reactive oxygen species (ROS). These inflammatory factors and ROS amplify their respective toxicities and mediate malignant feedback loop, causing a cascade inflammation response and aggravating the pathological process of PD. CD11b and GFAP are the marker proteins for activations of microglial cells and astrocytes, respectively. Therefore, the effect of the target compounds on the activations of the microglial cells and astrocytes in the substantia nigra, hippocampus, and midbrain areas of MPTP-induced PD mice can be investigated, to explore the mechanism of the anti-PD effect of the target compounds by inhibiting the neuroinflammation.
Half of experiment mice in each group were taken to separate the midbrain after perfusion and fixation. The tissue was trimmed, and the substantia nigra area was taken to prepare paraffin sections. The CD11b immunohistochemical staining was performed for the statistics of the change in the number of microglial cells with CD11b positive expression. The experiment included blank control group, MPTP model group, positive control group (caffeic acid phenethyl ester, CAPE), prototype control group (styryl sulfone compounds 3B, 3C, 3D, and 3G, whose structures are shown as above), and target compound group.

HO-1 = experiment: Midbrain HO-1 expression in MPTP Parkinson's disease model mouse (western blot); type: in vivo; details: for Expression (HO-1/GAPDH): midbrain, MPTP Parkinson's disease model mouse, western blot
Protocol: as §1
(§2) Oxidative stress is an important pathogenic mechanism of PD. Dopaminergic neurons are more sensitive to oxidative stress and are more susceptible to oxidative stress damage. Heme oxygenase (HO-1), a phase II enzyme, is also a well-known antioxidase. It plays an important protective role by catalyzing the conversion of free radicals into non-toxic products and increasing their water solubility to facilitate the elimination of free radicals, and maintain the redox balance in the body. It plays an important role in the process of protecting cells against oxidative stress damage. The activation of p38 protein phosphorylation has a negative regulatory effect on phase II enzymes. […] Using HO-1 as an indicator, the inhibitory effect of the target compounds on MPTP-induced oxidative stress damage in PD mice can be investigated.
HO-1 is expressed in astrocytes, microglial cells, and neurons. The total proteins of the midbrain tissue of mice in each experiment group were extracted, to determine the expression of phase II enzyme HO-1 in the midbrain of mice by western blot using GAPDH as the internal reference. The experiment included blank control group, MPTP model group, positive control group (caffeic acid phenethyl ester, CAPE), prototype control group (styryl sulfone compounds 3B, 3C, 3D, and 3G, whose structures are shown as above), and target compound group.

GCLC = experiment: Midbrain GCLC expression in MPTP Parkinson's disease model mouse (western blot); type: in vivo; details: for Expression (GCLC/GAPDH): midbrain, MPTP Parkinson's disease model mouse, western blot
Protocol: as §1
as §2, with “Glutathione (GSH) is an important antioxidant substance in the cell, and glutamate cysteine ligase (GCL) is the rate-limiting enzyme for GSH synthesis, which is composed of catalytic subunit (GCLC) and regulatory subunit (GCLM). The increase of GCLC expression can promote the synthesis of GSH and enhance the ability of tissue cells against oxidative stress. GCL,” for “Heme oxygenase (HO-1),”, “enzyme,” for “enzyme, is also a well-known antioxidase. It”, “GCLC” for “HO-1”
GCLC is expressed in astrocytes, microglial cells, and neurons. The total proteins of the midbrain tissue of mice in each experiment group were extracted, to determine the expression of phase II enzyme GCLC in the midbrain of mice by western blot using GAPDH as the internal reference. The experiment included blank control group, MPTP model group, positive control group (caffeic acid phenethyl ester, CAPE), prototype control group (styryl sulfone compounds 3B, 3C, 3D), and 3G, whose structures are shown as above), and target compound group.

[1] = molecular target: acetylcholinesterase (AchE) (Homo sapiens, UniProt P22303); experiment: biochemical
Protocol: The modified Ellman method was used to determine the inhibitory activity on acetylcholinesterase. The principle lies in that acetylthiocholine iodide is decomposed under the action of acetylcholinesterase (AchE) to generate thiocholine. The thiocholine is quickly reacted with DTNB as the colour-developing agent to generate a yellow substance with light absorption at 405 nm. To a 96-well microplate, 50 μl of enzyme reaction buffer, 125 μl of DTNB (3 mM), 25 μl of test sample or positive control drug, and 25 μl of AchE (0.2 U/ml) were successively added. After incubation at room temperature for 5 min, 25 μl of ATCI (15 mM) was added. After incubation at room temperature for 8 min, the absorbance value was determined at 405 nm with a microplate reader. A blank control group without enzyme (25 μl PBS instead of the sample to be tested) was also established.

[2] = acetylcholinesterase, modified Ellman method, read-out: IC50

Chain of acetylcholinesterase (AchE) (P22303 32-614, species assumed): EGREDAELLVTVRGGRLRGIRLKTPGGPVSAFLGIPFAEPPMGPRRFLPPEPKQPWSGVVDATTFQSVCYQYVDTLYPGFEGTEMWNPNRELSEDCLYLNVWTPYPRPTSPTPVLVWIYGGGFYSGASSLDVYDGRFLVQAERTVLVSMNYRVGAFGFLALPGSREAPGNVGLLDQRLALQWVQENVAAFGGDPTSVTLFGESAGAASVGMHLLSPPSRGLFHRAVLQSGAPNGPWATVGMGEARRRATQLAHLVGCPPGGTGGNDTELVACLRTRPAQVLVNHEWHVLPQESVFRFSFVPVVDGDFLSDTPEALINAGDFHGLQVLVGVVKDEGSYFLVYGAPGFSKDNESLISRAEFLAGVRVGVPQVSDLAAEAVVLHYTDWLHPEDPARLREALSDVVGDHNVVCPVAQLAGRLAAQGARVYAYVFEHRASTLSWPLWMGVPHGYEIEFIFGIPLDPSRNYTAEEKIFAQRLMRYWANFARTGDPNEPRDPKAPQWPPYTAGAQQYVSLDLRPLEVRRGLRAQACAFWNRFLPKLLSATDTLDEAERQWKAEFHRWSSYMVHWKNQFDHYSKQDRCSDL

| SMILES | Expression (TH/GAPDH) (midbrain TH) | number of substantia nigra microglial cells with CD11b positive expression compared with the styryl sulfone prototype compounds (substantia nigra CD11b) | Positive cell number (microglial cells with CD11b positive expression) (substantia nigra CD11b) | midbrain HO-1 expression compared with the styryl sulfone prototype compounds (HO-1) | Expression (HO-1/GAPDH) (HO-1) | midbrain GCLC expression compared with the styryl sulfone prototype compounds (GCLC) | Expression (GCLC/GAPDH) (GCLC) | IC50 [1, 2] | IC50 ([1]; read-out: IC50 values (acetylcholinesterase)) | IC50 [1] |
| --- | --- | --- | --- | --- | --- | --- | --- | --- | --- | --- |
| CCN(CC)C(=O)Oc1ccc(/C=C/S(=O)(=O)Cc2ccc(C(C)(C)C)cc2)cc1OC(=O)N(CC)CC [Compound G1-1, (E)-4-{2-[(4-t-butylphenyl)mesyl]ethenyl}-1,2-phenylenebis(diethylcarbamate)] | 0.70 ± 0.03 | significantly lower | 36 ± 3 | significantly higher | 1.35 ± 0.10 | significantly higher | 1.05 ± 0.04 | 10.8 ± 2.13 µM | – | – |
| CC(=O)Oc1ccc(/C=C/S(=O)(=O)Cc2c(F)c(F)c(F)c(F)c2F)cc1OC(=O)NC(=O)c1ccc([N+](=O)[O-])c(C)c1 [Compound D5-4, (E)-2-[N-(3-methyl-4-nitrobenzoyl)carbamoyloxy]-4-{2-[(perfluorophenyl)mesyl]ethenyl}phenyl acetate] | 1.19 ± 0.05 | – | 41 ± 3 | – | 0.93 ± 0.10 | – | 0.97 ± 0.07 | 20.8 ± 3.12 µM | – | – |
| O=C(/C=C/c1ccc(O)c(O)c1)OCCc1ccccc1 [Positive control group, caffeic acid phenethyl ester, reference compound] | 0.85 ± 0.04 | – | 49 ± 7 | – | 0.52 ± 0.07 | – | 0.77 ± 0.06 | > 100 µM | > 100 µM | – |
| O=C(NC(=O)C(F)(F)F)Oc1ccc(/C=C/S(=O)(=O)C(F)(F)c2ccc(Oc3ccccn3)cc2)cc1OC(=O)C(F)(F)C(F)(F)F [Compound L1-4, (E)-5-{2-[(4-[pyridin-2-yl-oxy]phenyl)difluoromethylsulfonyl]ethenyl}-2-[N-(2,2,2-trifluoroacetyl)carbamoyloxy]phenyl-2,2,3,3,3-pentafluoropropionate] | 0.79 ± 0.04 | – | 35 ± 2 | – | 1.13 ± 0.12 | – | 0.96 ± 0.10 | 9.48 ± 1.34 µM | – | – |
| O=S(=O)(/C=C/c1ccc(O)c(O)c1)CCCc1ccccc1 [Compound 3C, (E)-4-{2-[(3-phenylpropyl)sulfonyl]ethenyl}benzene-1,2-diol, reference compound] | 0.63 ± 0.03 | – | 70 ± 6 | – | 0.44 ± 0.05 | – | 0.34 ± 0.05 | > 100 µM | – | – |
| CCN(CC)C(=O)Oc1ccc(/C=C/S(=O)(=O)CCCc2ccccc2)cc1OC(=O)N(CC)CC [Compound C1-1, (E)-4-[2-(3-phenylpropylsulfonyl)ethenyl]-1,2-phenylenebis(diethylcarbamate)] | 1.20 ± 0.06 | significantly lower | 27 ± 4 | significantly higher | 0.88 ± 0.09 | significantly higher | 1.34 ± 0.08 | 14.7 ± 3.51 µM | – | – |
| COc1ccc(CC(=O)Oc2ccc(C(N)CS(=O)(=O)/C=C/c3ccc(OC(C)(C)C)c(OC(=O)N(C)c4ccccc4)c3)cc2)cc1 (centres unmarked) [Compound P1-3, (E)-4-{1-amino-2-[4-t-butoxy-3-(N-methyl-N-phenylcarbamoyloxy)styrylsulfonyl]ethyl}phenyl-2-(4-methoxyphenyl)acetate] | 0.77 ± 0.03 | – | 31 ± 4 | – | 0.77 ± 0.10 | – | 0.91 ± 0.11 | – | – | 14.4 ± 2.04 µM |
| CCOC(CS(=O)(=O)/C=C/c1ccc(OC(C)=O)c(OC(=O)Nc2ccc(NC)cc2)c1)C(OCC)c1ccc(OCc2ccccc2)c(O)c1 (centres unmarked) [Compound H2-4, (E)-4-{2-[3-(4-benzyloxy-3-hydroxyphenyl)-2,3-diethoxypropyl]sulfonylethenyl}-2-[N-(4-methylaminophenyl)carbamoyloxy]phenyl acetate] | 1.02 ± 0.04 | – | 29 ± 4 | – | 0.95 ± 0.10 | – | 1.21 ± 0.08 | 11.3 ± 1.34 µM | – | – |

Source: patent publication US12410124B2 (priority 2019, dated 2025)
